Data: paper PMC12658903 (RSC Medicinal Chemistry, 2025)

System: SARS-CoV-2 (D614G)
Assay type: cell-based
Settings: 10 µM

CN(C)C(=O)COC(=O)Cc1ccc(OC(=O)c2ccc(NC(=N)N)cc2)cc1 [Camostat, camostat]
Percentage of infection inhibition: 85%
